Broadly, the IC50 is the concentration needed to halve the response being measured.

Common to all, as to assay type: cell-based
The target of experiment [1] is Met (phospho-Met, HGF-stimulated PC-3 prostate cancer cells) (Homo sapiens (Human), UniProt P08581). The experiment is described as follows: Met autophosphorylation ELISA in PC-3 cells (Example F). Particulars: cellular activity; Met autophosphorylation ELISA in PC-3 cells; read-out: c-Met IC50. A digest of the protocol:
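Compounds were tested on HGF-stimulated PC-3 cells. After 24 h culture and 3 h serum starvation, cells got compound for 1 h and 100 ng/mL HGF for 10 min, and Met tyrosine phosphorylation was measured by ELISA.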
(In general: ELISA stands for enzyme-linked immunosorbent assay.)

For experiment [2], the target named is AXL (phospho-AXL, Gas6-stimulated A-172 glioblastoma cells) (Homo sapiens (Human), UniProt P30530). In words: AXL autophosphorylation ELISA in A-172 cells (Example E). Particulars: cellular activity; AXL autophosphorylation ELISA in A-172 cells; read-out: Axl IC50. A digest of the protocol:
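Phospho-AXL was measured by ELISA in lysates of Gas6-stimulated A-172 cells, starved 24 h in serum-free medium and exposed 1 h to an 8-point compound dilution at 0.3% DMSO.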

Experiment [3] has as its target KDR (phospho-KDR, VEGF165-stimulated HUVEC cells) (Homo sapiens (Human), UniProt P35968). In words: KDR autophosphorylation ELISA in HUVEC cells (Example G). Particulars: cellular activity; KDR autophosphorylation ELISA in HUVEC cells. A digest of the protocol: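 Read-out is phospho-KDR measured by ELISA in lysates of VEGF165-stimulated (100 ng/mL, 5 min) HUVEC that were serum-starved 24 h and then pre-exposed 1 h to compound across 8 doses in 0.3% DMSO. Unstimulated lysates defined 0% and stimulated vehicle lysates 100% activity; IC50 values come from 4-parameter logistic regression.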

Experiment [4] has as its target Mer (phospho-Mer, MERTK-transfected 293A cells) (Homo sapiens (Human), UniProt Q12866). The experiment is described as follows: Mer autophosphorylation ELISA in transient transfected 293A cells (Example H). The following applies: cellular activity; Mer autophosphorylation ELISA in transient transfected 293A cells. A digest of the protocol: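 IC50 from phospho-Mer ELISA of MERTK-transfected 293A cell lysates after 1 h treatment with serially diluted compound in serum-free medium.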

Bounds are passed on as bounds.

Chain of AXL (phospho-AXL, Gas6-stimulated A-172 glioblastoma cells) (P30530 26-894): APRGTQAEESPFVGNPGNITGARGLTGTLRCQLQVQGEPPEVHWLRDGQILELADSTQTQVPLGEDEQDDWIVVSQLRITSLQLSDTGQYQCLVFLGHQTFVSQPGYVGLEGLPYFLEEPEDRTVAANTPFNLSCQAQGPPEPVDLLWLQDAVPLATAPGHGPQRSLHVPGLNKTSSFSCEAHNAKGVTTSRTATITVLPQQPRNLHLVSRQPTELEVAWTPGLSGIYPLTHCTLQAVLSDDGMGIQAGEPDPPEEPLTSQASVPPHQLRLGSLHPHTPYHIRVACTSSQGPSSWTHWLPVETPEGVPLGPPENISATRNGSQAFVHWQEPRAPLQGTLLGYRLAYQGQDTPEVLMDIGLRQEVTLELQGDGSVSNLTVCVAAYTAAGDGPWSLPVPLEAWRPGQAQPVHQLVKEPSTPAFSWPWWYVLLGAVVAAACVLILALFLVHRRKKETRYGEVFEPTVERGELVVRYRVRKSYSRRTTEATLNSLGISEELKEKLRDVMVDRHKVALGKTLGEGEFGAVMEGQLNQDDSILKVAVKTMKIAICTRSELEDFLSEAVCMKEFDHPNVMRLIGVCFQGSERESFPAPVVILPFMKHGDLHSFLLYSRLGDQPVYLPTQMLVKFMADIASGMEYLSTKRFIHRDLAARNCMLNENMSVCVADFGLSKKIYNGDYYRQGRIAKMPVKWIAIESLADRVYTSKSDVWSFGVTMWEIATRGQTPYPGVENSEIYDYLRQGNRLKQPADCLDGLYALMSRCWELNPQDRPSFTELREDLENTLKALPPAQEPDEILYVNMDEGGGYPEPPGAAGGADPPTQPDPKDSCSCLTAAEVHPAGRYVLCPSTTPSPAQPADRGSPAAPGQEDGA
Chain of Met (phospho-Met, HGF-stimulated PC-3 prostate cancer cells) (P08581 25-1390): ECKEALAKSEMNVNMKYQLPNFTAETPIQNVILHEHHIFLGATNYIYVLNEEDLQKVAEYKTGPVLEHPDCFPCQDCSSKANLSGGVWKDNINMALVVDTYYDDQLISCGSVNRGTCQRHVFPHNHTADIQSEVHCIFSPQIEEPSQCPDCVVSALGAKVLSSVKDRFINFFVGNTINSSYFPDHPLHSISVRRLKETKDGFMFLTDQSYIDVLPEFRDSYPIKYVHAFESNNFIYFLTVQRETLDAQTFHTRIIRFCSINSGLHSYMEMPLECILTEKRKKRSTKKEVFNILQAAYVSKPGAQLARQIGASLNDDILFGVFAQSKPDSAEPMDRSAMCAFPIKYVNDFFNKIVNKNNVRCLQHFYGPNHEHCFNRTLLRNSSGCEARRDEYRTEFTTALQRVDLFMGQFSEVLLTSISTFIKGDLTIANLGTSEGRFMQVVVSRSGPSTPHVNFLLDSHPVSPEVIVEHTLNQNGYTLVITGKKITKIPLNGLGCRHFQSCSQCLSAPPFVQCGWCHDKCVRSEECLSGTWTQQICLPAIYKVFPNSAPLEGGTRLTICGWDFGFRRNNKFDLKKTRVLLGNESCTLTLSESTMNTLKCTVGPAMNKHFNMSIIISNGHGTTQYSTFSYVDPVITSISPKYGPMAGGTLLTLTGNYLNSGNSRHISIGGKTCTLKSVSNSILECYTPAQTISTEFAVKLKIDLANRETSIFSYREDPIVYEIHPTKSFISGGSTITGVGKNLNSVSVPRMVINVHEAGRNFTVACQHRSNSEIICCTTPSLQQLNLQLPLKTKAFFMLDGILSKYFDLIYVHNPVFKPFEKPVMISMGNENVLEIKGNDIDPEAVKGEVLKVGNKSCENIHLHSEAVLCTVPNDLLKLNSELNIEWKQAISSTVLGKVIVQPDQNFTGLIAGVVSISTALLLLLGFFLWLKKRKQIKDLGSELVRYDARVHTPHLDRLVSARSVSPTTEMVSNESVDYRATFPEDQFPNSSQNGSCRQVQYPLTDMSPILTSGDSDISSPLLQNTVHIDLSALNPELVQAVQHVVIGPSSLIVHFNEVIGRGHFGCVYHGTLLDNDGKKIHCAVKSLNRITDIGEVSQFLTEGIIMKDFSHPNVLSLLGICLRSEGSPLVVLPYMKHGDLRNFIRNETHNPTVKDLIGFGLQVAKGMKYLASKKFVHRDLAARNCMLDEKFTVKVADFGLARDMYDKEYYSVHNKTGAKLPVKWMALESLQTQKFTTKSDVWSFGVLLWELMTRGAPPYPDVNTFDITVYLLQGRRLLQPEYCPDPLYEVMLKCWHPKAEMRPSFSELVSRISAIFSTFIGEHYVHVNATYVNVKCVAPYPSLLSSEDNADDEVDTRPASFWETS
Chain of KDR (phospho-KDR, VEGF165-stimulated HUVEC cells) (P35968 20-1356): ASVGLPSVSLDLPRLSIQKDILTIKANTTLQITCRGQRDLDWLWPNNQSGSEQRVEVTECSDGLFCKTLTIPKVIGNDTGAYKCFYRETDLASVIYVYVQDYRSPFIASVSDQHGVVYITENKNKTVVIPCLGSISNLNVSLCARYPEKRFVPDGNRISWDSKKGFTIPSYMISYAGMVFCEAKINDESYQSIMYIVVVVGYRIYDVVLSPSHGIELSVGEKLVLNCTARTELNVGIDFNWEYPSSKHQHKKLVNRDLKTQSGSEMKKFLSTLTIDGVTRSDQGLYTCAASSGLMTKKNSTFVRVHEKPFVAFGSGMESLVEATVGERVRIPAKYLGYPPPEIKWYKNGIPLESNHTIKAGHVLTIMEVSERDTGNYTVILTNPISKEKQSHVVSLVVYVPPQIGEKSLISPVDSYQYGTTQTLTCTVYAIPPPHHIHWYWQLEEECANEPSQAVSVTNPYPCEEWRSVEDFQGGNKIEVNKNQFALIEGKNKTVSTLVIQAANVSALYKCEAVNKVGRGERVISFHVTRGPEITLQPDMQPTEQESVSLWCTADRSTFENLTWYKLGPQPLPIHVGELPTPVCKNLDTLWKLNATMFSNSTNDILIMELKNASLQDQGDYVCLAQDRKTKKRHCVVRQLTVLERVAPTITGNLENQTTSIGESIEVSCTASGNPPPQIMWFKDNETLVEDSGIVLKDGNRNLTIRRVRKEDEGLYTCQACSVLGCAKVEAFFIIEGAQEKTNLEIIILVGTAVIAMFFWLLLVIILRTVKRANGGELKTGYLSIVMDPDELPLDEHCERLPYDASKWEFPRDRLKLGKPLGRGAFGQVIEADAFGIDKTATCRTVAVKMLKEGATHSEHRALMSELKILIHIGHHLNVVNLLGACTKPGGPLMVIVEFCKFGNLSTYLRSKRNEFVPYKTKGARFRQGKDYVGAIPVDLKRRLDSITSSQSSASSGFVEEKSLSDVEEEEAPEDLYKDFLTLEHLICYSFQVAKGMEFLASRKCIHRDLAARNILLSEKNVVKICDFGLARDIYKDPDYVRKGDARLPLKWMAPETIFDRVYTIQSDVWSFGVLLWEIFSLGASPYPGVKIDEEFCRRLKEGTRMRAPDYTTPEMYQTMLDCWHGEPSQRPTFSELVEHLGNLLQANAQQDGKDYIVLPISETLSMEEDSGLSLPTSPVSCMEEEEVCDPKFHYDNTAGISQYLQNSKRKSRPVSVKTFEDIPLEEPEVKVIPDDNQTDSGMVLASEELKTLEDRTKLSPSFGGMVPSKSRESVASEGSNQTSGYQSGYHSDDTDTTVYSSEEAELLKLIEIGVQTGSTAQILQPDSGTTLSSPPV
Chain of Mer (phospho-Mer, MERTK-transfected 293A cells) (Q12866 21-999): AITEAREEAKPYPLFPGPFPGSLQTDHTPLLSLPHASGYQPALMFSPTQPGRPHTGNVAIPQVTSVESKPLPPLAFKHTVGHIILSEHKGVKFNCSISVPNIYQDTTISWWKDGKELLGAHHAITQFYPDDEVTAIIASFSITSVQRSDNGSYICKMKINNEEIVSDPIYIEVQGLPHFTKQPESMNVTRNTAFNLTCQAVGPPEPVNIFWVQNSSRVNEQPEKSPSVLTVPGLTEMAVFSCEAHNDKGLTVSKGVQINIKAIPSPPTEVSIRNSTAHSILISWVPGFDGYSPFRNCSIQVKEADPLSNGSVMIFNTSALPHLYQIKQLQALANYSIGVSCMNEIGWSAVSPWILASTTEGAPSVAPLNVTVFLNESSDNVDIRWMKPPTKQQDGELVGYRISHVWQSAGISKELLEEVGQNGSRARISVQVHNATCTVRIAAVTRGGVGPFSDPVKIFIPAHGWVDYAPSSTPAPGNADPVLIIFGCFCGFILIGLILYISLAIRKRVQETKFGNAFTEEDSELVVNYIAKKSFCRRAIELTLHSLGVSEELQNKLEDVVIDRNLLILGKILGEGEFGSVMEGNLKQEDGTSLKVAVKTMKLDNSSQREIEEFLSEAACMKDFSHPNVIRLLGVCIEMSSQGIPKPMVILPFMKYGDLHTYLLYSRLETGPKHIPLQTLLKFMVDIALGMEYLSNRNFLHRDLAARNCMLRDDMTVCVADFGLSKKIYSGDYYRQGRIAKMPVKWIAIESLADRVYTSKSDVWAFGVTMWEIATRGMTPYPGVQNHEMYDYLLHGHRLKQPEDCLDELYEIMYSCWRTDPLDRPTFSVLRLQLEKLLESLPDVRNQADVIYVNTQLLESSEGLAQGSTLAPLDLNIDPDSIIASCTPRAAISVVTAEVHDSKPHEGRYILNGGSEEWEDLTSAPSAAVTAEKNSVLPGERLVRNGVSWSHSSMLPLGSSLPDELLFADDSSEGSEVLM

Take `COc1cc2nccc(Oc3ccc(NC(=O)c4c(Cl)n(C)c(C)c(-c5ccc(F)cc5)c4=O)cc3F)c2nc1OC` [Compound 647, 2-chloro-N-[4-[(6,7-dimethoxy-1,5-naphthyridin-4-yl)oxy]-3-fluorophenyl]-5-(4-fluorophenyl)-1,6-dimethyl-4-oxopyridine-3-carboxamide]: the IC50 is less than 100 nM in experiment [1], less than 100 nM in experiment [2], more than 300 nM in experiment [3] and less than 100 nM in experiment [4].
Turning to `COc1cc2nccc(Oc3ccc(NC(=O)c4c(OC)n(C)c(C)c(-c5ccc(F)cc5)c4=O)cc3F)c2nc1OC` [Compound 648, N-[4-[(6,7-dimethoxy-1,5-naphthyridin-4-yl)oxy]-3-fluorophenyl]-5-(4-fluorophenyl)-2-methoxy-1,6-dimethyl-4-oxopyridine-3-carboxamide], the IC50 in experiment [1] was less than 100 nM; in experiment [2], less than 100 nM; in experiment [3], 100 to 300 nM; in experiment [4], less than 100 nM.
On to `CNc1c(C(=O)Nc2ccc(Oc3ccnc4cc(OC)c(OC)nc34)c(F)c2)c(=O)c(-c2ccc(F)cc2)c(C)n1C` [Compound 649, N-[4-[(6,7-dimethoxy-1,5-naphthyridin-4-yl)oxy]-3-fluorophenyl]-5-(4-fluorophenyl)-1,6-dimethyl-2-(methylamino)-4-oxopyridine-3-carboxamide], for which the IC50 in experiment [1] is less than 100 nM; in experiment [2], 100 to 300 nM; in experiment [3], more than 300 nM; in experiment [4] it was less than 100 nM.
On to `COCCOc1nc2c(Oc3ccc(NC(=O)c4ccc(C)n(-c5ccc(F)cc5)c4=O)cc3F)ncnc2cc1OC` [Compound 650, N-[3-fluoro-4-[7-methoxy-6-(2-methoxyethoxy)pyrido[3,2-d]pyrimidin-4-yl]oxyphenyl]-1-(4-fluorophenyl)-6-methyl-2-oxopyridine-3-carboxamide], for which the IC50 in experiment [1], in experiment [2], in experiment [3] and in experiment [4] was less than 100 nM in each case.
Turning to `COc1cnc2c(Oc3ccc(NC(=O)c4c(CO)nc(C)c(-c5ccc(F)cc5)c4O)cc3F)ccnc2c1` [Compound 651, N-[3-fluoro-4-[(7-methoxy-1,5-naphthyridin-4-yl)oxy]phenyl]-5-(4-fluorophenyl)-4-hydroxy-2-(hydroxymethyl)-6-methylpyridine-3-carboxamide], the IC50 in experiment [1], in experiment [2], in experiment [3] and in experiment [4] was less than 100 nM each time.
For the compound `COc1cc2nccc(Oc3ccc(NC(=O)c4c(CO)nc(C)c(-c5ccc(F)cc5)c4O)cc3F)c2nc1OC` [Compound 652, N-[4-[(6,7-dimethoxy-1,5-naphthyridin-4-yl)oxy]-3-fluorophenyl]-5-(4-fluorophenyl)-4-hydroxy-2-(hydroxymethyl)-6-methylpyridine-3-carboxamide], the 50% inhibitory concentration (IC50) in experiment [1], in experiment [2], in experiment [3] and in experiment [4] was less than 100 nM throughout.
Take `COc1cc2nccc(Oc3ccc(NC(=O)c4c(C)[nH]nc(-c5ccc(F)cc5)c4=O)cc3F)c2nc1OC` [Compound 653, N-[4-[(6,7-dimethoxy-1,5-naphthyridin-4-yl)oxy]-3-fluorophenyl]-3-(4-fluorophenyl)-6-methyl-4-oxo-1H-pyridazine-5-carboxamide]: the IC50 in experiment [1], in experiment [2], in experiment [3] and in experiment [4] was less than 100 nM each time.
For `COc1cc2nccc(Oc3ccc(NC(=O)c4c(C)c(C(C)=O)cn(-c5ccc(F)cc5)c4=O)cc3F)c2nc1OC` [Compound 654, 5-acetyl-N-[4-[(6,7-dimethoxy-1,5-naphthyridin-4-yl)oxy]-3-fluorophenyl]-1-(4-fluorophenyl)-4-methyl-2-oxopyridine-3-carboxamide], the IC50 in experiment [1], in experiment [2], in experiment [3] and in experiment [4] was less than 100 nM in each case.

Values taken from US12371428B2 (Exelixis, Inc., priority 2019, dated 2025).
